According to patent publication US20230146455A1, “TREATMENT OF INFLAMMATORY DISEASES WITH PEPTIDES AND PHARMACEUTICAL COMPOSITIONS” (Yuyu Pharma, Inc., priority 2020, published 2023):
Where “and” joins values, the source holds several entries; their conditions need not be identical. Identical values can stand only once. Where a SMILES comes first, the peptide text is derived from it. [ ]: non-standard residue; d: D form. Hyp = O=C(O)[C@@H]1C[C@@H](O)CN1

Assays:
IFN-gamma = assay: Example 9 Luminex, LPS hPBMCs: IFN-gamma; type: cell-based, human
Method: (§1) Treatment Human PBMCs were pretreated with YY-101, YDE-011 and YDE-043 or reference compound; Xiidra® at various concentration (ranging from 1 nM to 100 uM) for 2 h before stimulation. An equal volume of 0.5% DMSO was used as a vehicle control. Then, the cells were treated with LPS at 5 ug/ml. The supernatants from treated cells were harvested at 24 h and placed in a 96 well for Luminex cytokine & chemokine profiling using a Luminex 200 multiplex assay (Luminex; R&D system, USA).
(§2) The main study arm with triplicate wells per group in a 24-well plate: • 1. Blank • 2. PBMC: 0.5% DMSO • 3. PBMC+LPS (5 ug/ml) • 4. PBMC+YY-101 100 uM • 5. PBMC+YY-101 10 uM • 6. PBMC+YY-101 1 uM • 7. PBMC+YY-101 0.1 uM • 8. PBMC+YY-101 0.01 uM • 9. PBMC+LPS (5 ug/ml)+Xiidra®100 uM • 10. PBMC+LPS (5 ug/ml)+Xiidra® 10 uM • 11. PBMC+LPS (5 ug/ml)+Xiidra® 1 uM • 12. PBMC+LPS (5 ug/ml)+Xiidra®0.1 uM • 13. PBMC+LPS (5 ug/ml)+Xiidra®0.01 uM • 14. PBMC+LPS (5 ug/ml)+Xiidra®0.001 uM • 15. PBMC+LPS (5 ug/ml)+YY-101 100 uM • 16. PBMC+LPS (5 ug/ml)+YY-101 10 uM • 17. PBMC+LPS (5 ug/ml)+YY-101 1 uM • 18. PBMC+LPS (5 ug/ml)+YY-101 0.1 uM • 19. PBMC+LPS (5 ug/ml)+YY-101 0.01 uM • 20. PBMC+LPS (5 ug/ml)+YY-101 0.001 uM • 21. PBMC+LPS (5 ug/ml)+YDE-011 100 uM • 22. PBMC+LPS (5 ug/ml)+YDE-011 10 uM • 23. PBMC+LPS (5 ug/ml)+YDE-011 1 uM • 24. PBMC+LPS (5 ug/ml)+YDE-011 0.1 uM • 25. PBMC+LPS (5 ug/ml)+YDE-011 0.01 uM • 26. PBMC+LPS (5 ug/ml)+YDE-011 0.001 uM • 27. PBMC+LPS (5 ug/ml)+YDE-043 100 uM • 28. PBMC+LPS (5 ug/ml)+YDE-043 10 uM • 29. PBMC+LPS (5 ug/ml)+YDE-043 1 uM • 30. PBMC+LPS (5 ug/ml)+YDE-043 0.1 uM • 31. PBMC+LPS (5 ug/ml)+YDE-043 0.01 uM • 32. PBMC+LPS (5 ug/ml)+YDE-043 0.001 uM
(§3) Multiplex assay was used to measure 30 cytokines and chemokines. The 1:2, 1:10 and 1:200 diluted cell supernatant and serial dilution of the standard were dispensed into a 96 well plate at 50 ul/well. Then, the pre-mixed cocktail of antibody-coated magnetic beads was dispensed at 50 ul/well and incubated at room temperature for 2 h in a horizontal orbital microplate shaker at 800±500 rpm. The beads were washed using a magnetic device to prevent loss. The biotin-antibody was dispensed in 50 ul of each well and incubated at room temperature for 1 h in a shaker at 800±500 rpm. After washing, streptavidin-PE was added at 50 ul/well and incubated at room temperature for 30 min in a shaker under the same conditions. Finally, after washing, wash buffer (100 ul/well) was added to the plate and incubated in a shaker for 2 min. The Luminex™ 200 setting were set according to the manufacturer's protocol. The data was calculated with a standard five-parameter logistic nonlinear regression analysis of the data (xPonent software 4.2, USA). The levels of cytokine/chemokine are normalized to the live cell counts (1×10^5 cells/mL) and presented as concentrations per mL (pg/mL or ng/mL).

CCL2/JE/MCP-1 = assay: Example 9 Luminex, LPS hPBMCs: CCL2/JE/MCP-1; type: cell-based, human
Method: as §1, §2, §3

[1] = PBMC + LPS(5 ug/ml) + test article 0.001 uM, Mean
[2] = PBMC + LPS(5 ug/ml) + test article 0.001 uM, single replicates
[3] = PBMC + LPS(5 ug/ml) + test article 0.01 uM, Mean
[4] = PBMC + LPS(5 ug/ml) + test article 0.01 uM, single replicates
[5] = PBMC + LPS(5 ug/ml) + test article 0.1 uM, Mean
[6] = PBMC + LPS(5 ug/ml) + test article 0.1 uM, single replicates
[7] = PBMC + LPS(5 ug/ml) + test article 1 uM, Mean
[8] = PBMC + LPS(5 ug/ml) + test article 1 uM, single replicates
[9] = PBMC + LPS(5 ug/ml) + test article 10 uM, Mean
[10] = PBMC + LPS(5 ug/ml) + test article 10 uM, single replicates
[11] = PBMC + LPS(5 ug/ml) + test article 100 uM, Mean
[12] = PBMC + LPS(5 ug/ml) + test article 100 uM, single replicates
[13] = PBMC + LPS(5 ug/ml) + test article 0.001 uM, individual replicates
[14] = PBMC + LPS(5 ug/ml) + test article 0.01 uM, individual replicates
[15] = PBMC + LPS(5 ug/ml) + test article 0.1 uM, individual replicates
[16] = PBMC + LPS(5 ug/ml) + test article 1 uM, individual replicates
[17] = PBMC + LPS(5 ug/ml) + test article 10 uM, individual replicates
[18] = PBMC + LPS(5 ug/ml) + test article 100 uM, individual replicates

CC(C)C[C@H](NC(=O)[C@H](CCC(N)=O)NC(=O)CNC(=O)[C@@H]1C[C@@H](O)CN1)C(=O)NCC(=O)O [YDE-043] (H-[Hyp]GQLG-OH; N-terminus and C-terminus assumed)
Concentration (IFN-gamma) (IFN-gamma; [1]): 861.2 pg/mL | conc/live cell (IFN-gamma) (IFN-gamma; [1]): 174.1 pg/10^5 | Concentration (IFN-gamma) (IFN-gamma; [2]): 863.3 pg/mL and 945.2 pg/mL and 774.9 pg/mL | conc/live cell (IFN-gamma) (IFN-gamma; [2]): 196.2 pg/10^5 and 157.5 pg/10^5 and 168.5 pg/10^5 | Concentration (IFN-gamma) (IFN-gamma; [3]): 841.6 pg/mL | conc/live cell (IFN-gamma) (IFN-gamma; [3]): 161.9 pg/10^5 | Concentration (IFN-gamma) (IFN-gamma; [4]): 857.6 pg/mL and 792.3 pg/mL and 874.8 pg/mL | conc/live cell (IFN-gamma) (IFN-gamma; [4]): 190.6 pg/10^5 and 120.0 pg/10^5 and 175.0 pg/10^5 | Concentration (IFN-gamma) (IFN-gamma; [5]): 797.8 pg/mL | conc/live cell (IFN-gamma) (IFN-gamma; [5]): 148.8 pg/10^5 | Concentration (IFN-gamma) (IFN-gamma; [6]): 892.0 pg/mL and 628.5 pg/mL and 872.9 pg/mL | conc/live cell (IFN-gamma) (IFN-gamma; [6]): 178.4 pg/10^5 and 112.2 pg/10^5 and 155.9 pg/10^5 | Concentration (IFN-gamma) (IFN-gamma; [7]): 852.5 pg/mL | conc/live cell (IFN-gamma) (IFN-gamma; [7]): 162.3 pg/10^5 | Concentration (IFN-gamma) (IFN-gamma; [8]): 734.2 pg/mL and 834.6 pg/mL and 988.7 pg/mL | conc/live cell (IFN-gamma) (IFN-gamma; [8]): 126.6 pg/10^5 and 173.9 pg/10^5 and 186.5 pg/10^5 | Concentration (IFN-gamma) (IFN-gamma; [9]): 840.3 pg/mL | conc/live cell (IFN-gamma) (IFN-gamma; [9]): 155.7 pg/10^5 | Concentration (IFN-gamma) (IFN-gamma; [10]): 828.9 pg/mL and 826.9 pg/mL and 865.3 pg/mL | conc/live cell (IFN-gamma) (IFN-gamma; [10]): 159.4 pg/10^5 and 153.1 pg/10^5 and 154.5 pg/10^5 | Concentration (IFN-gamma) (IFN-gamma; [11]): 462.3 pg/mL | conc/live cell (IFN-gamma) (IFN-gamma; [11]): 73.4 pg/10^5 | Concentration (IFN-gamma) (IFN-gamma; [12]): 480.6 pg/mL and 444.0 pg/mL | conc/live cell (IFN-gamma) (IFN-gamma; [12]): 77.5 pg/10^5 and 69.4 pg/10^5 | Concentration (CCL2/JE/MCP-1; [1]): 2109.3 pg/mL | conc/live cell (CCL2/JE/MCP-1; [1]): 427.9 pg/10^5 | Concentration (CCL2/JE/MCP-1; [13]): 2082.8 pg/mL and 2215.5 pg/mL and 2029.7 pg/mL | conc/live cell (CCL2/JE/MCP-1; [13]): 473.4 pg/10^5 and 369.2 pg/10^5 and 441.2 pg/10^5 | Concentration (CCL2/JE/MCP-1; [3]): 2023.7 pg/mL | conc/live cell (CCL2/JE/MCP-1; [3]): 388.1 pg/10^5 | Concentration (CCL2/JE/MCP-1; [14]): 2036.2 pg/mL and 1963.4 pg/mL and 2071.4 pg/mL | conc/live cell (CCL2/JE/MCP-1; [14]): 452.5 pg/10^5 and 297.5 pg/10^5 and 414.3 pg/10^5 | Concentration (CCL2/JE/MCP-1; [5]): 1922.5 pg/mL | conc/live cell (CCL2/JE/MCP-1; [5]): 358.4 pg/10^5 | Concentration (CCL2/JE/MCP-1; [15]): 2109.9 pg/mL and 1768.2 pg/mL and 1889.5 pg/mL | conc/live cell (CCL2/JE/MCP-1; [15]): 422.0 pg/10^5 and 315.8 pg/10^5 and 337.4 pg/10^5 | Concentration (CCL2/JE/MCP-1; [7]): 2123.4 pg/mL | conc/live cell (CCL2/JE/MCP-1; [7]): 402.7 pg/10^5 | Concentration (CCL2/JE/MCP-1; [16]): 2174.1 pg/mL and 2114.7 pg/mL and 2081.5 pg/mL | conc/live cell (CCL2/JE/MCP-1; [16]): 374.9 pg/10^5 and 440.6 pg/10^5 and 392.7 pg/10^5 | Concentration (CCL2/JE/MCP-1; [9]): 1799.9 pg/mL | conc/live cell (CCL2/JE/MCP-1; [9]): 333.9 pg/10^5 | Concentration (CCL2/JE/MCP-1; [17]): 1889.0 pg/mL and 1766.4 pg/mL and 1744.2 pg/mL | conc/live cell (CCL2/JE/MCP-1; [17]): 363.3 pg/10^5 and 327.1 pg/10^5 and 311.5 pg/10^5 | Concentration (CCL2/JE/MCP-1; [11]): 281.0 pg/mL | conc/live cell (CCL2/JE/MCP-1; [11]): 44.6 pg/10^5 | Concentration (CCL2/JE/MCP-1; [18]): 258.9 pg/mL and 303.0 pg/mL | conc/live cell (CCL2/JE/MCP-1; [18]): 41.8 pg/10^5 and 47.3 pg/10^5
